This note sets out measurements from patent publication US10947263B2, “Cyclic dinucleotides as anticancer agents” (BRISTOL-MYERS SQUIBB COMPANY, priority 2017, dated 2021).

Test [1] deals with STING / IRF pathway in THP1-Dual cells. The experiment in a line: STING THP1 Reporter Assay, IRF pathway (secreted Lucia luciferase, QUANTI-Luc). It is filed as cell-based. As to conditions: 10% human plasma, 20 hours, 100% activation = 100 μM cGAMP, luciferase readout, read-out: THP1 Reporter Assays EC50 IRF3. The source says:
(§1) THP1-Dual™ cells were derived from the human THP-1 monocyte cell line by stable integration of two inducible reporter constructs. To this end, THP1-Dual™ cells allow the simultaneous study of the […], by monitoring the activity of SEAP, and the IRF pathway by assessing the activity of a secreted luciferase (Lucia). Both reporter proteins are readily measurable in the cell culture supernatant when using QUANTI-Blue™, a SEAP detection reagent, and QUANTI-Luc™, a luciferase detection reagent.
(§2) THP1-Dual™ cells induce the activation of NF-κB in response to STING agonists. They also trigger the IRF pathway upon stimulation with STING agonists, such as cGAMP. Here, the THP-1-Dual cells were used to assess STING binders for function on the cellular level.
(§3) Serial dilutions of compounds in DMSO were added to low volume 384 well plates at 100 nl/well using an ECHO acoustic dispenser (Labcyte, model 550) to achieve final starting concentration of 100 μM in cell suspension. THP-1 Dual™ STING reporter cells (Invivogen, Dual cells cat #THPD-nfis) were added to the plates with compounds at 15,000 cells in 10 μL per well in RPMI media (Gibco, cat #11875) containing 10% human plasma in a low volume 384-well black wall clear bottom tissue culture plate (Corning, cat #3542) for SEAP assay and low volume solid white plate (Corning, cat #3826) for luciferase assay. One column of the plate was reserved for treatment with cGAMP at 100 μM for 100% activation calculation and one column for no treatment (DMSO only) for baseline activation. Plates were then incubated in 37 OC incubator at 5% CO2 for 20 hours.
(§4) In the SEAP assay, […] 2× QuantiBlue (Invivogen, cat #Rep-qb2) is added to 384 well black plates seeded with THP1 cells and incubated at 37° C. for 2 hours. Plates were read on the Envision (Perkin Elmer) at 620 nm wavelength (OD620). In the luciferase assay, 5 μl of Quantiluc (Invivogen, Rep-qlc2) is added to white 384 well plates seeded with THP1 cells and read at 5 minutes on the Envision (Perkin Elmer) using a luminescence protocol (RLU). For both cell lines, 100% activation was determined by value (RLU) of THP-1 Dual STING cells stimulated with 100 μM cGAMP (Invivogen, cat #TLRL-NACGA23-5).

Test [2] deals with STING / NF-κB pathway in THP1-Dual cells. The test can be described thus: STING THP1 Reporter Assay, NF-κB pathway (SEAP, QUANTI-Blue). It is filed as cell-based. The note with it: 10% human plasma, 20 hours, 100% activation = 100 μM cGAMP, SEAP readout, read-out: THP1 Reporter Assays EC50 NFkB.
Description: as §1, §2, §3, §4

In test [3] the target is T1, STING WT (His-TVMV-S-hSTING(155-341)-H232R) (Homo sapiens, UniProt Q86WV6, H232R).
T1 construct: STING WT: His-TVMV-S-hSTING(155-341)-H232R
The test can be described thus: STING HTRF binding assay (time resolved FRET competition), STING WT. As to conditions: 20 nM His-tagged STING WT cytoplasmic domain, 200 nM fluorescein-labeled cGAMP analog probe, one hour; read-out: HTRF Binding Assays IC50 WT. The method, then:
(§5) A time resolved FRET-based competition binding assay was used to assess test article binding to STING WT and STING AQ. His-tagged STING cytoplasmic domain (WT or AQ) at a concentration of 20 nM was incubated with 2.5 nM Tb-labeled anti-His antibody, test compound, and fluorescein-labeled cGAMP analog probe (BioLog cat. no. C195) at a concentration of 200 nM (STING WT) or 40 nM (STING AQ) in PBS containing 0.005% Tween-20 and 0.1% BSA for one hour. Fluorescence at 495 nm and 520 nm was measured using an EnVision microplate reader to quantify FRET between Tb-labeled anti-His antibody and fluorescein-labeled probe. Background was defined as the signal obtained in the absence of STING protein, and background subtracted FRET ratios were normalized to the maximum signal obtained in the absence of test compound. These values were converted to a percent inhibition. Percent inhibition was determined for test compounds at 11 concentrations. The IC50, defined as the concentration of competing test compound needed to reduce specific binding of the probe by 50%, was calculated using the 4 parameter logistic equation to fit the data
STING WT: His-TVMV-S-hSTING(155-341)-H232R • […] […] […] […] LRQEEKEEV (SEQ ID NO:1)
Background: In TR-FRET formats the signal depends on donor and acceptor labels being close together.

Test [4] concerns the target T2, STING AQ (His-TVMV-S-hSTING(155-341)-G230A-R293Q) (Homo sapiens, UniProt Q86WV6, G230A/H232R/R293Q).
T2 construct: STING AQ: His-TVMV-S-hSTING(155-341)-G230A-R293Q
The test can be described thus: STING HTRF binding assay (time resolved FRET competition), STING AQ. The note with it: 20 nM His-tagged STING AQ cytoplasmic domain, 40 nM fluorescein-labeled cGAMP analog probe, one hour; read-out: HTRF Binding Assays IC50 AQ. On the procedure: as §5
STING AQ: His-TVMV-S-hSTING(155-341)-G230A-R293Q • […] […] […] […] LRQEEKEEV (SEQ ID NO:2)

A value given as a limit tells only on which side of the number the result lay.

T1 sequence (Q86WV6 with tags, fused parts or gaps H232R): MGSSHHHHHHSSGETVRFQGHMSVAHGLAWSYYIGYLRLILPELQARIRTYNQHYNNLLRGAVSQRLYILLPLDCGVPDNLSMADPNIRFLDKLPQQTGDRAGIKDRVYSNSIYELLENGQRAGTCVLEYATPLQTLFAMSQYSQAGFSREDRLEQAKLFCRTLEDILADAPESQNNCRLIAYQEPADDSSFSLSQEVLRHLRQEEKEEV
T2 sequence (Q86WV6 with tags, fused parts or gaps G230A/H232R/R293Q): as the sequence (Q86WV6 with tags, fused parts or gaps H232R) above, with G99A, R162Q counted along it

Usually EC50 stands for the concentration at which the effect is half-maximal. A word on the IC50: it is the concentration that gives 50% inhibition. Regarding `Nc1ncnc2c1ncn2[C@@H]1O[C@@H]2COP(=O)(S)O[C@@H]3[C@H](O)[C@@H](COP(=O)(S)O[C@H]2[C@H]1F)O[C@H]3n1nnc2c([N+](=O)[O-])cccc21` (single isomer, unassigned) [Example 7-4], the results for the EC50 in test [1] and in test [2] were 5500 nM and 8000 nM, respectively. Besides, the IC50 in test [3] came out at 50 nM; in test [4] it was 10 nM.
For the compound `NC(=O)c1cccc2c1nnn2[C@@H]1O[C@@H]2COP(=O)(S)O[C@H]3[C@@H](F)[C@H](n4cnc5c(N)ncnc54)O[C@@H]3COP(=O)(S)O[C@@H]1[C@@H]2O` (single isomer, unassigned) [Example 8-1], the results for the EC50 in test [1] and in test [2] were 1000 nM and 2400 nM, respectively. For the same compound, the IC50 in test [3] and in test [4] was 10 nM each time.
In the case of `NC(=O)c1cccc2c1nnn2[C@@H]1O[C@@H]2COP(=O)(S)O[C@H]3[C@@H](F)[C@H](n4cnc5c(N)ncnc54)O[C@@H]3COP(=O)(S)O[C@@H]1[C@@H]2O` (single isomer, unassigned) [Example 8-2], the EC50 came to 5200 nM in test [1] and 7600 nM in test [2]. Also, the IC50 in test [3] and in test [4] was 10 nM in each case.
On to `NC(=O)c1cccc2c1nnn2[C@@H]1O[C@@H]2COP(=O)(S)O[C@H]3[C@@H](F)[C@H](n4cnc5c(N)ncnc54)O[C@@H]3COP(=O)(S)O[C@@H]1[C@@H]2O` (single isomer, unassigned) [Example 8-3], for which the EC50 in test [1] was 10000 nM; in test [2] it was 15300 nM. Further, the IC50 in test [3] came to 140 nM; in test [4], 20 nM.
In the same order, the values of `Nc1ncnc2c1ncn2[C@@H]1O[C@@H]2COP(=O)(S)O[C@@H]3[C@H](O)[C@@H](COP(=O)(S)O[C@H]2[C@H]1F)O[C@H]3n1nnc2c(C(F)(F)F)cccc21` (single isomer, unassigned) [Example 9-1] are 800 nM, 2200 nM, 20 nM and 4 nM.
For the compound `Nc1ncnc2c1ncn2[C@@H]1O[C@@H]2COP(=O)(S)O[C@@H]3[C@H](O)[C@@H](COP(=O)(S)O[C@H]2[C@H]1F)O[C@H]3n1nnc2c(C(F)(F)F)cccc21` (single isomer, unassigned) [Example 9-2], the EC50 in test [1] worked out at 7900 nM; in test [2], 15700 nM. Besides, the results for the IC50 in test [3] and in test [4] were 130 nM and 10 nM, respectively.
Turning to `Nc1ncnc2c1ncn2[C@@H]1O[C@@H]2COP(=O)(S)O[C@@H]3[C@H](O)[C@@H](COP(=O)(S)O[C@H]2[C@H]1F)O[C@H]3n1nnc2c(C(F)(F)F)cccc21` (single isomer, unassigned) [Example 9-3], the figures for the EC50 in test [1] and in test [2] were 69400 nM and more than 100000 nM, respectively. Further, the IC50 in test [3] amounted to 900 nM; in test [4], 40 nM.
On the same counts, the results for `Nc1ncnc2c1ncn2[C@@H]1O[C@@H]2COP(=O)(S)O[C@@H]3[C@H](O)[C@@H](COP(=O)(S)O[C@H]2[C@H]1F)O[C@H]3n1nnc2c(C(F)(F)F)cccc21` (single isomer, unassigned) [Example 9-4] are more than 100000 nM, more than 100000 nM, 12500 nM and 600 nM.
`NC(=O)c1cccc2c1nnn2[C@@H]1O[C@@H]2COP(=O)(S)O[C@H]3[C@@H](F)[C@H](n4cnc5c(N)ncnc54)O[C@@H]3COP(=O)(S)O[C@@H]1[C@@H]2F` (single isomer, unassigned) [Example 10-1]: the results for the EC50 in test [1] and in test [2] were 1330 nM and 2220 nM, respectively. Also, the IC50 in test [3] turned out to be 20 nM; in test [4] it was 5 nM.
Take `NC(=O)c1cccc2c1nnn2[C@@H]1O[C@@H]2COP(=O)(S)O[C@H]3[C@@H](F)[C@H](n4cnc5c(N)ncnc54)O[C@@H]3COP(=O)(S)O[C@@H]1[C@@H]2F` (single isomer, unassigned) [Example 10-2]: the EC50 in test [1] stood at 46500 nM; in test [2], 76200 nM. Further, the IC50 in test [3] was determined as 100 nM; in test [4] it was 10 nM.
